The target in assay [1] is T1, JAK2 (Homo sapiens (Human), UniProt O60674). As to conditions: selective JAK1 inhibitors, literature; cited from earlier work.
Target sequence in this assay (O60674 whole entry, species assumed): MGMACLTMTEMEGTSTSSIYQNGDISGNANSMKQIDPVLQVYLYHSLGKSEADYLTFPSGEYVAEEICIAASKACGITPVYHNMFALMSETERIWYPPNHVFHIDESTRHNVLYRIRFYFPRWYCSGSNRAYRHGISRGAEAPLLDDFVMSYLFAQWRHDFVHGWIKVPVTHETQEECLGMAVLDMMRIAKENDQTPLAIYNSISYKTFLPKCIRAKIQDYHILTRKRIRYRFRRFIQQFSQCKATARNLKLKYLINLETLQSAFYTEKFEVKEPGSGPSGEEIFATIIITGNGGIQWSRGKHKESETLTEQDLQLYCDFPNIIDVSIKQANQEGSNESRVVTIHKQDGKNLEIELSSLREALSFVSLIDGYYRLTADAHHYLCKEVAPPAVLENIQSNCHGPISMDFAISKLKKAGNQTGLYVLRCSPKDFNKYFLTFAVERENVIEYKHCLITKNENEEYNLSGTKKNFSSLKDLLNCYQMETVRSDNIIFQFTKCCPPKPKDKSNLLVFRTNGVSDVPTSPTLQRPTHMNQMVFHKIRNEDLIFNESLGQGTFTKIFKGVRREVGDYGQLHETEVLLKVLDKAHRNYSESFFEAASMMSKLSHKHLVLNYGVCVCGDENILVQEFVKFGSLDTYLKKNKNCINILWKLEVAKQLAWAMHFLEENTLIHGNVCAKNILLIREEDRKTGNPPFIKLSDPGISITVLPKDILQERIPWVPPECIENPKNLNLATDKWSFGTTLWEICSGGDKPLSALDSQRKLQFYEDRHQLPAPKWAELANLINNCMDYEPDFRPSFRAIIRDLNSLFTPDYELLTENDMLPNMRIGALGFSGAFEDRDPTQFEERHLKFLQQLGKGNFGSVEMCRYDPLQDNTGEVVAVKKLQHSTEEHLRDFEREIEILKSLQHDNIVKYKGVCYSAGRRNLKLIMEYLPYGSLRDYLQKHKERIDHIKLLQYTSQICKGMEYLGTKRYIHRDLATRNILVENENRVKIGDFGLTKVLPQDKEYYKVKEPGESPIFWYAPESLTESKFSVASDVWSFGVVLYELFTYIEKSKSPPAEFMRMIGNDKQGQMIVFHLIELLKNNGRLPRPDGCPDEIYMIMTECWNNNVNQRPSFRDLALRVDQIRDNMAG
Assay [2] concerns IFNα-induced pSTAT3 (JAK1/TYK2 signaling pathway). As to the kind of experiment: Mouse whole blood assay, inhibition of IFNα-induced pSTAT3. Format: cell-based. The note with it: C57BL/6J mouse blood, IFNα 20000 IU/mL. The method, then: Cytokine IFNα can induce STAT3 phosphorylation (pSTAT3) through the JAK1/TYK2 signaling pathway. […] IFNα used was Recombinant mouse IFNα (Miltenyi #130-093-131), the pSTAT3 antibody used was Alexa Fluor 488 anti-STAT3 Phospho (Tyr705) Antibody (Biolegend #651106), and the CD3 antibody used was Brilliant Violet 421 anti-mouse CD3 Antibody (Biolegend #100228). The cytokine dilution buffer was PBS+0.1% BSA, which was filtered and stored at […]. The FACS buffer was PBS+0.2% BSA+1 mM EDTA. Specific steps are described below. • 1. C57BL/6J mouse blood was added to a 96-well plate, with 90 μL per well. • 2. Each well was added with 5 μL of the compound ([…]), uniformly mixed and incubated at 37° C. for 60 min in an incubator. • 3. Each well was added with 5 μL of 20×IFNα (with a working concentration of 20000 IU/mL) as the stimulation factor, uniformly mixed and incubated at 37° C. for 30 min. • 4. Blood was transferred to a 96-deep-well plate, and each well was added with 1 mL of Lyse fix buffer (1×), uniformly mixed and incubated at 37° C. for 10 min. • 5. The plate was centrifuged at 600 g for 5 min and the supernatant was discarded. 1 mL of PBS was added to each well and centrifuged at 600 g for 5 min and the supernatant was discarded, which were repeated twice. Each well was added with 100 μL of the anti-mCD3 antibody (diluted by a fold of 80 with the cytokine dilution buffer), uniformly mixed and incubated at 4° C. for 30 min. • 6. 1 mL of PBS was added to each well and centrifuged at 600 g for 5 min and the supernatant was discarded, which were repeated twice. Each well was added with 1000 μL of Perm III, uniformly mixed and incubated at 4° C. for 30 min. • 7. The plate was centrifuged at 600 g for 5 min and the supernatant was discarded. 1 mL of PBS was added to each well and centrifuged at 600 g for 5 min and the supernatant was discarded, which were repeated twice. • 8. Each well was added with 100 μL of the anti-pSTAT3 antibody (diluted by a fold of 50 with the FACS buffer), uniformly mixed and incubated at 25° C. for 40 min. • 9. 1 mL of the FACS buffer was added to each well and centrifuged at 600 g for 5 min and the supernatant was discarded. 200 μL of the FACS buffer was added to each well and resuspended. All samples were transferred to a 96-well tip-bottom plate and uploaded. • 10. Data were collected and analyzed.

Assay [3] deals with T1, JAK2. Nature of the assay: JAK2 inhibitory activity, mobility shift assay, 1 mM ATP. Format: biochemical. How it is done: (§1) The JAK1 inhibitory activity and the JAK2 inhibitory activity of the amide compounds provided in the above examples were tested by the method below.
(§2) Specific steps are described below. • 1. A 1× Kinase buffer was formulated. • 2. Concentration gradients of the compound were formulated: a test compound with an initial concentration of 10000 nM (JAK1) or 30000 nM (JAK2) was diluted in a 384-well plate to a 100% DMSO solution with a 100-fold final concentration, wherein the compound was diluted by a fold of 3 to 10 concentrations. 250 nL of the compound with the 100-fold final concentration was transferred with a dispenser Echo 550 to the target plate. • 3. A kinase solution with a 2.5-fold final concentration was prepared with the 1× Kinase buffer. • 4. […] The plate was centrifuged at 1000 rpm for 30 s, shaken and uniformly mixed, and incubated for 10 min at room temperature. • 6. A mixed solution of ATP (the final concentration of ATP=1 mM) and Kinase substrate with a 5/3-fold final concentration was formulated with the 1× Kinase buffer. • 7. 15 μL of the mixed solution of ATP and the substrate with the 5/3-fold final concentration was added to initiate the reaction. • 8. The 384-well plate was centrifuged at 1000 rpm for 30 s, shaken and uniformly mixed, and incubated for respective times at room temperature. • 9. The kinase reaction was stopped by adding 30 μL of a detection termination solution, and the plate was centrifuged at 1000 rpm for 30 s and shaken and uniformly mixed. • 10. The conversion rate was read with Caliper EZ Reader and the half maximal inhibitory concentration (IC50) was calculated.
Target sequence in this assay (O60674 826-1132): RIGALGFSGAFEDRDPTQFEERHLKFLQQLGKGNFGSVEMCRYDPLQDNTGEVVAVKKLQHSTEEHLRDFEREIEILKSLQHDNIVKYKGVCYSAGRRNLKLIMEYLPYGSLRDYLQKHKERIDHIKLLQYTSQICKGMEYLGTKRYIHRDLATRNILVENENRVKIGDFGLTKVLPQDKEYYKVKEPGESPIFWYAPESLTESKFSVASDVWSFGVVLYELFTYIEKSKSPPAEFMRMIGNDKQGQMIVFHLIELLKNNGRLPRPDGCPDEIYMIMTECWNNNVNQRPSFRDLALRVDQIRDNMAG

Assay [4] concerns the target JAK1 (Homo sapiens (Human), UniProt P23458). Nature of the assay: JAK1 inhibitory activity, mobility shift assay, 1 mM ATP. Format: biochemical. As to conditions: for IC50: 1 mM ATP; for JAK2/JAK1 Multiple selectivity: ratio of JAK2 IC50 to JAK1 IC50, 1 mM ATP. How it is done:
as §1, §2

The structures appear in SMILES notation.

Sequence of JAK1 (P23458 850-1154): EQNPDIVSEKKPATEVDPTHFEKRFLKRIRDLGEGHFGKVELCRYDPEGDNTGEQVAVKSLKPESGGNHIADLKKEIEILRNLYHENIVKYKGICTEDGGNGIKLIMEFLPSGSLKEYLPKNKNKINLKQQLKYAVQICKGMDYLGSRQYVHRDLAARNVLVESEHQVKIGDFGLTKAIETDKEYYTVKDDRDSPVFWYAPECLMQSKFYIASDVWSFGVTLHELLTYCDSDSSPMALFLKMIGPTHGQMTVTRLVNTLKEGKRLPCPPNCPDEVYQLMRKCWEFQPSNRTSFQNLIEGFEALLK

As for `CC[C@@H]1CN(C(=O)NCC(F)(F)F)C[C@@H]1c1cnc2cnc3[nH]ccc3n12` [upadacitinib], the “selectivity for JAK2 in kinase assays” value in assay [1] is “less than three”.
Turning to `O=C(Nc1nc2cccc(-c3ccc(CN4CCS(=O)(=O)CC4)cc3)n2n1)C1CC1` [filgotinib], in assay [1], the “selectivity for JAK2 in kinase assays” value is given as “less than three”.
The term IC50 denotes the concentration at which inhibition is half-maximal. As to `COc1nn(C)cc1Nc1ncc(C)c(-c2c[nH]c3c(NC(=O)[C@H]4CC(F)(F)CN4[C@@H]4CCN(C)C4)cccc23)n1` [Example 32, (2R,3′R)-4,4-difluoro-N-(3-(2-((3-methoxy-1-methyl-1H-pyrazol-4-yl)amino)-5-methylpyrimidin-4-yl)-1H-indol-7-yl)-1′-methyl-[1,3′-bipyrrolidine]-2-carboxamide], the IC50 in assay [2] is 121 nM; in assay [3] (Table 7) it was 3880 nM; in assay [3] (Table 8) it was 3880 nM; in assay [4] (Table 7), 26 nM; in assay [4] (Table 8), 26 nM. Besides, in assay [4], the “JAK2/JAK1 Multiple selectivity” value is 149.
Regarding `COc1nn(C)cc1Nc1nccc(-c2c[nH]c3c(NC(=O)[C@@H](C)N4CCN(C)CC4)cccc23)n1` [AZD4205, reference compound], the concentration for half-maximal inhibition (IC50) in assay [2] turned out to be 173 nM; in assay [3] (Table 7), 4020 nM; in assay [3] (Table 8), 4020 nM; in assay [4] (Table 7) it was 56 nM; in assay [4] (Table 8) it was 56 nM. For the same compound, the “JAK2/JAK1 Multiple selectivity” value in assay [4] was determined as 72.
For the compound `COc1nn(C)cc1Nc1ncc(C)c(-c2c[nH]c3c(NC(=O)[C@H]4C[C@H](F)CN4[C@@H]4CCN(C)C4)cccc23)n1` [Example 30, (2R,3′R,4S)-4-fluoro-N-(3-(2-((3-methoxy-1-methyl-1H-pyrazol-4-yl)amino)-5-methylpyrimidin-4-yl)-1H-indol-7-yl)-1′-methyl-[1,3′-bipyrrolidine]-2-carboxamide], the 50% inhibitory concentration (IC50) in assay [2] amounted to 127 nM; in assay [3] (Table 7), 5160 nM; in assay [3] (Table 8), 5160 nM; in assay [4] (Table 7) it was 33 nM; in assay [4] (Table 8), 33 nM. The “JAK2/JAK1 Multiple selectivity” value in assay [4] was found to be 156.
